The values below come from patent US4472579A, “Process for the preparation of quinoline carboxylic acid derivatives” (Kyorin Seiyaku Kabushiki Kaisha, priority 1980, dated 1984).

≈ marks a conversion by molar mass, not a printed value. Like-named read-outs stand apart in the source and are kept apart here.

Common to all, as to test: Antibacterial activity, agar dilution streak MIC
Holding throughout (format): cell-based
On the technique in general: In agar dilution the substance is mixed into plates at graded concentrations.

In one test the test system is Bacillus subtilis PCI219. Conditions: Bacillus subtilis PCI219, Gram +; read-out: Minimum inhibitory concentration. As to the method: (§1) The antibacterial activities of the compounds of this invention were assayed by the standard agar dilution streak method against Gram-positive and Gram-negative bacteria [Chemothrapy, 22, 1126 (1974)].
The test system of test [1] is Diplococcus pneumoniae IID552. The note with it: Streptococcus pneumoniae; Diplococcus pneumoniae IID552, Gram +; read-out: Minimum inhibitory concentration. On the procedure: as §1
Test [2] deals with Escherichia coli NIHJ JC-2. The note with it: NIHJJC2, read-out: Minimum inhibitory concentration. On the procedure: as §1
Test [3] has as its system Klebsiella pneumoniae IF03512. The note with it: Klebsiella pneumoniae IF03512, Gram -; read-out: Minimum inhibitory concentration. On the procedure:
as §1

In a further test the test system is Proteus vulgaris IF03167. The note with it: Proteus vulgaris IF03167, Gram -; read-out: Minimum inhibitory concentration. As to the method: as §1
In test [4] the test system is Pseudo. aeruginosa IF012689. Conditions: Pseudomonas aeruginosa; Pseudo. aeruginosa IF012689, Gram -; read-out: Minimum inhibitory concentration. As to the method: as §1
Test [5] concerns Pseudomonas aeruginosa VI. Conditions: Gram -, read-out: Minimum inhibitory concentration. On the procedure:
as §1

The test system of the next test is S. aureus ATCC14775. Conditions: Staphylococcus aureus; S. aureus ATCC14775, Gram +; read-out: Minimum inhibitory concentration. As to the method: as §1
For test [6], the system named is Salmonella enteritidis IID604. Conditions: Salmonella enterica, read-out: Minimum inhibitory concentration. As to the method:
as §1

The test system of test [7] is Staphyloccocus aureus 209P. Conditions: read-out: Minimum inhibitory concentration. On the procedure:
as §1

Test [8] has as its system Streptococcus pyogenes IID692. Conditions: Streptococcus pyogenes IID692, Gram +; read-out: Minimum inhibitory concentration. On the procedure: as §1
The next test concerns Shigella sonnei IID969. The note with it: Shigella sonnei IID969, Gram -; read-out: Minimum inhibitory concentration. As to the method: The antibacterial activities of the compounds of this invention were assayed by the standard agar dilution streak method against Gram-positive and Gram-negative bacteria [Chemothrapy, 22, 1126 (1974)]. The result was shown in Table 1 together with a known agent, nalidixic acid.

On to `CCn1cc(C(=O)O)c(=O)c2cc(F)c(N3CCNCC3)cc21` [Example 1, 1-ethyl-6-fluoro-7-(1-piperazinyl)-4-oxo-1,4-dihydroquinoline-3-carboxylicacid], for which the MIC in the test with Bacillus subtilis PCI219 stood at 0.39 µg/mL (≈ 1.22 µM); in [1], 3.13 µg/mL (≈ 9.8 µM); in test [2] it was 0.1 µg/mL (≈ 0.313 µM); in test [3] it was 0.05 µg/mL (≈ 0.157 µM); in the test on Proteus vulgaris IF03167 it was 0.1 µg/mL (≈ 0.313 µM); in [4], 1.56 µg/mL (≈ 4.89 µM). The MIC stood at 0.39 µg/mL (≈ 1.22 µM) in [5]; 3.13 µg/mL (≈ 9.8 µM) in the test on S. aureus ATCC14775; 0.2 µg/mL (≈ 0.626 µM) in test [6] (Salmonella enteritidis IID604, Gram -); 0.78 µg/mL (≈ 2.44 µM) in test [7] (Staphyloccocus aureus 209P, Gram +); 1.56 µg/mL (≈ 4.89 µM) in [8]; 0.1 µg/mL (≈ 0.313 µM) with Shigella sonnei IID969.
With `CCn1cc(C(=O)O)c(=O)c2cc(F)c(N3CCN(C)CC3)cc21` [Example 6, 1-ethyl-6-fluoro-7-(4-methyl-1-piperazinyl)-4-oxo-1,4-dihydroquinoline-3-carboxylic acid], the MIC is 3.13 µg/mL (≈ 9.39 µM) in test [1]; 0.05 µg/mL (≈ 0.15 µM) in test [3]; 3.13 µg/mL (≈ 9.39 µM) in test [4]; 0.78 µg/mL (≈ 2.34 µM) in [6]; 6.25 µg/mL (≈ 18.7 µM) in [8]; 0.1 µg/mL (≈ 0.3 µM) in the test on Shigella sonnei IID969.
Turning to `C=Cn1cc(C(=O)O)c(=O)c2cc(F)c(N3CCNCC3)cc21` [Example 8, 1-vinyl-6-fluoro-7-(1-piperazinyl)-4-oxo-1,4-dihydroquinoline-3-carboxylicacid], the MIC in test [8] was found to be 12.5 µg/mL (≈ 39.4 µM).
The same measure, in the same setting: the result for `C=Cn1cc(C(=O)O)c(=O)c2cc(F)c(N3CCN(C)CC3)cc21` [Example 9, 1-vinyl-6-fluoro-7-(4-methyl-1-piperazinyl)-4-oxo-1,4-dihydroquinoline-3-carboxylic acid] reads 12.5 µg/mL (≈ 37.7 µM).
For the molecule `CCn1cc(C(=O)O)c(=O)c2ccc(C)nc21` [NA, Nalidixic acid, reference compound], the MIC in test [7] came out at 50 µg/mL (≈ 215 µM).
